Source: patent US12485114B2, “Materials and methods useful to induce cancer cell death via methuosis or autophagy or a combination thereof” (The University of Toledo, priority 2017, dated 2025)

How the values were obtained:
Experiment in all cases: Morphological assessment of vacuolization
Type in all cases: cell-based
[1] = system: BT-20 (triple negative breast cancer)
HCT-116 (colon cancer) = system: HCT-116 (colon cancer)
Text: The methuophagy inducing activities of BAPT-27 were also prominent in different colon cancer cell lines with different genetic profiles. […] (FIG. 42). However, the vacuoles formation was not prominent in normal epithelial colon cells (CRL-1459). (FIG. 42).

U-251 (glioblastoma) = system: U-251 (glioblastoma)

Measured: vacuolization

Cc1[nH]c2ccccc2c1-c1nn2c(-c3ccncc3)nnc2s1 [BAPT-36]
dose dependent vacuolization: all assays above
